Assay results as given in article PMC5969746 (PLoS ONE, 2018).

Assays:
[1] = target: T1, scyllo-inositol dehydrogenase with L-glucose dehydrogenase activity (Pl-scyllo-IDH) (Paracoccus laeviglucosivorans, UniProt K7ZP76); test: X-ray crystal structure, […] Å; assay type: binding
T1 construct: gene lgdA; lgdA in pET21a(+), expressed in E. coli BL21(DE3), Ni-NTA purified; homo-tetramer, active site includes H318 of the adjacent subunit
T1 sequence (K7ZP76 1-372): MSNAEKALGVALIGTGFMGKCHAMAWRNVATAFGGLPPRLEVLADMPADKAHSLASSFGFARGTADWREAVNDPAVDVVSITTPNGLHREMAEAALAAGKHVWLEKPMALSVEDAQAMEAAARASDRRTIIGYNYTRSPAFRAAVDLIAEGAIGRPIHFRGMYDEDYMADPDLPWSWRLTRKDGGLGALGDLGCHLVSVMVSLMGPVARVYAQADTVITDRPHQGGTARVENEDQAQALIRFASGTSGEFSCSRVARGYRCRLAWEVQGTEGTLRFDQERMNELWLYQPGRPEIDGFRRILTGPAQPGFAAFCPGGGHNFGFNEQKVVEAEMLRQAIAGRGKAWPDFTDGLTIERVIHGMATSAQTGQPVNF

[2] = target: T1, scyllo-inositol dehydrogenase with L-glucose dehydrogenase activity (Pl-scyllo-IDH); test: X-ray crystal structure, […] Å; assay type: binding; remark: listed apart in the source
[3] = target: T1, scyllo-inositol dehydrogenase with L-glucose dehydrogenase activity (Pl-scyllo-IDH); test: X-ray crystal structure, […] Å; assay type: binding; conditions: crystal soaked with 100 mM myo-inositol and 25 mM NAD+; active site
[4] = substrate: O[C@H]1[C@H](O)[C@@H](O)[C@H](O)[C@@H](O)[C@@H]1O; test: purified protein; assay type: biochemical, Paracoccus laeviglucosivorans; conditions: 20 mM NAD+, 100 mM Tris-HCl, pH 9.0
[5] = target: the molecule itself; test: crystal structure; homo-tetramer in the asymmetric unit, space group P212121; crystals grown at 20°C by hanging-drop vapor diffusion, 0.1 M sodium acetate pH 4.8-5.4, 12-35% PEG 3350; apo form and complexes with NAD+/NADH and sugars

With `O=C1[C@@H](O)[C@H](O)[C@@H](O)[C@H](O)[C@H]1O` [scyllo-inosose] the “X-ray crystal structure, 2.0 Å” value ([1]; crystal soaked with 100 mM scyllo-inosose and 25 mM NAD+, active site) was “the carbonyl oxygen located between K106 and H195 formed hydrogen bonds”.

With `NC(=O)c1ccc[n+]([C@@H]2O[C@H](COP(=O)(O)OP(=O)(O)OC[C@H]3O[C@@H](n4cnc5c(N)ncnc54)[C@H](O)[C@@H]3O)[C@@H](O)[C@H]2O)c1` [NAD^+] the “X-ray crystal structure, 2.0 Å” value ([1]; complex with scyllo-inosose (also with myo-inositol, 5YA8, 2.3 Å), 25 mM NAD+ soak) was “myo-inositol/NAD^+ and scyllo-inosose/NAD^+ complexes have been deposited”.

In the case of `O=C1O[C@@H](CO)[C@H](O)[C@@H](O)[C@@H]1O` [L-glucono-1,5-lactone], the “X-ray crystal structure, 1.8 Å” value ([2]; crystal soaked with 100 mM L-glucose and 25 mM NAD+, active site, NADH complex) is reported as “bound molecule in the active site was in fact the reaction product of L-glucose oxidation”.

`O[C@H]1[C@H](O)[C@@H](O)[C@H](O)[C@@H](O)[C@H]1O` [myo-inositol] was tested, and the “X-ray crystal structure, 2.3 Å” value [3] was “complex structures of Pl-scyllo-IDH with scyllo-inosose and myo-inositol were also determined”.

For `NC(=O)C1=CN([C@@H]2O[C@H](COP(=O)(O)OP(=O)(O)OC[C@H]3O[C@@H](n4cnc5c(N)ncnc54)[C@H](O)[C@@H]3O)[C@@H](O)[C@H]2O)C=CC1` [NADH], the “X-ray crystal structure, 1.8 Å” value ([2]; complex with L-glucono-1,5-lactone, crystal soaked with NAD+, assigned as NADH) was “the bound cofactor molecule might therefore be NADH”.

B1: scyllo-inositol dehydrogenase with L-glucose dehydrogenase activity (Pl-scyllo-IDH) (Paracoccus laeviglucosivorans; R178A) (protein)
chain: MSNAEKALGVALIGTGFMGKCHAMAWRNVATAFGGLPPRLEVLADMPADKAHSLASSFGFARGTADWREAVNDPAVDVVSITTPNGLHREMAEAALAAGKHVWLEKPMALSVEDAQAMEAAARASDRRTIIGYNYTRSPAFRAAVDLIAEGAIGRPIHFRGMYDEDYMADPDLPWSWALTRKDGGLGALGDLGCHLVSVMVSLMGPVARVYAQADTVITDRPHQGGTARVENEDQAQALIRFASGTSGEFSCSRVARGYRCRLAWEVQGTEGTLRFDQERMNELWLYQPGRPEIDGFRRILTGPAQPGFAAFCPGGGHNFGFNEQKVVEAEMLRQAIAGRGKAWPDFTDGLTIERVIHGMATSAQTGQPVNF
notes: lgdA in pET21a(+), expressed in E. coli BL21(DE3), Ni-NTA purified; homo-tetramer, active site includes H318 of the adjacent subunit
B1 showed a Km [4] of 40.6 ± 7.2 mM, a kcat [4] of 8.1 ± 0.65 s⁻¹ and a kcat/Km [4] of 200 M⁻¹ s⁻¹.

B2: Paracoccus laeviglucosivorans scyllo-inositol dehydrogenase (enzyme)
chain: MSNAEKALGVALIGTGFMGKCHAMAWRNVATAFGGLPPRLEVLADMPADKAHSLASSFGFARGTADWREAVNDPAVDVVSITTPNGLHREMAEAALAAGKHVWLEKPMALSVEDAQAMEAAARASDRRTIIGYNYTRSPAFRAAVDLIAEGAIGRPIHFRGMYDEDYMADPDLPWSWRLTRKDGGLGALGDLGCHLVSVMVSLMGPVARVYAQADTVITDRPHQGGTARVENEDQAQALIRFASGTSGEFSCSRVARGYRCRLAWEVQGTEGTLRFDQERMNELWLYQPGRPEIDGFRRILTGPAQPGFAAFCPGGGHNFGFNEQKVVEAEMLRQAIAGRGKAWPDFTDGLTIERVIHGMATSAQTGQPVNF
notes: Protein encoded by the lgdA gene of Paracoccus laeviglucosivorans (scyllo-inositol dehydrogenase, GFO/IDH/MocA family); A selenomethionine-substituted form (E. coli B834(DE3)) was used only for phasing; Crystals were also soaked with NAD+ and L-glucose, myo-inositol or scyllo-inosose; also called Pl-scyllo-IDH; LgdA; source: E. coli BL21(DE3), pET21a(+), purified (Ni-NTA agarose, dialysis)
For B2, the “stoichiometry N” value [5] was 4.
